These results are taken from patent US6987093B2 (priority 2001, dated 2006).

Experiment [1] relates to Haemophilus influenzae 54A1100. The experiment is described as follows: Gerbil middle ear (otitis media) infection model, ED50, H. influenzae 54A1100. It is filed as in vivo. The settings on record: oral QD; gerbil otitis media model.
Experiment [2] deals with Streptococcus pneumoniae 02J1016. The experiment in a line: Murine peritonitis model, Streptococcus pneumoniae. It is filed as in vivo, mouse. Conditions: oral QD.
The subject of experiment [3] is Haemophilus influenzae 54A1100. The experiment is described as follows: Murine acute infection (peritonitis) model challenged with Haemophilus influenzae. It is filed as in vivo, mouse. Conditions: for Mice Surviving/Total: Q.D. [1 day].
The subject of another experiment is H. influenzae 54A1100. The experiment in a line: MIC determination, H. influenzae 54A1100. It is filed as cell-based, Haemophilus influenzae. Conditions: H. influenzae 54A1100. As for the experimental part: (§1) MIC Determinations. Streptococcus pneumoniae, S. pyogenes, E. faecalis, and H. influenzae MICs were determined using the broth microdilution procedure recommended by the NCCLS. Test trays were incubated at 35C without carbon dioxide. For testing of streptococci, the cation-adjusted Mueller-Hinton broth was supplemented with 2–3% lysed horse blood. For testing H. influenzae, freshly prepared Haemophilus Test Medium broth was used.
(§2) Bacterial Strains. • S. pneumoniae 02J1016, serotype 3, originally isolated from blood culture (strain P 4241) (MLS- and penicillin-susceptible). • S. pyogenes 02C0203, ATCC 12384, group A, type 3 (MLS-susceptible). • E. faecalis 03A1085, vancomycin susceptible clinically derived strain. • H. influenzae 54A1100, (43095 ATCC Fulghum strain) non-serotype B strain originally isolated from otitis media (macrolide and penicillin susceptible). • H. influenzae 54A1218, clinically derived non-serotype B strain (macrolide-susceptible, penicillin-resistant, TEM-1 beta-lactamase).

The test system of experiment [4] is Streptococcus pneumoniae 02J1016. The experiment in a line: Murine lung (pulmonary/pneumonia) infection model challenged with Streptococcus pneumoniae. It is filed as in vivo, mouse.
Experiment [5] has as its system Streptococcus pyogenes 02C0203. The experiment in a line: Murine acute infection (peritonitis) model challenged with Streptococcus pyogenes. It counts as in vivo, mouse.
In a further experiment the test system is S. pyogenes 02C0203. The experiment in a line: MIC determination, S. pyogenes. Conditions: listed as Clanthromycin. It counts as cell-based, Streptococcus pyogenes. As for the experimental part: as §1, §2
Experiment [6] deals with H. influenzae. Conditions: cited from earlier work.
The next experiment has as its system S. pneumoniae isolates. The experiment in a line: Susceptibility (MIC) testing of trial S. pneumoniae isolates with PCR of resistance mechanism. It counts as cell-based, Streptococcus pneumoniae. Conditions: for MIC: Streptococcus pneumoniae. An excerpt:
Samples of middle ear fluid were split for storage at a central laboratory and cultured locally. All pathogens isolated locally were subcultured and sent to a central laboratory for confirmation and susceptibility testing, performed by Kirby-Bauer disk-diffusion or MIC testing according to NCCLS standards.
Polymerase chain reaction (PCR) determination of resistance mechanisms in all the azithromycin-resistant pneumococci was done.
Cultures were taken for antimicrobial susceptibility testing and bacterial species were identified. Current NCCLS approved breakpoints for MICs and zone sizes were applied to all data irrespective of the breakpoint in use at the time of the study. The isolates from the clinical studies were sent to central laboratories for identification and susceptibility determination. The methods for agar diffusion disk tests are those recommended by NCCLS.
The susceptibility breakpoints for azithromycin were defined as follows: […]

Experiment [7] relates to H. influenzae. The experiment is described as follows: Study 95-001 otitis media caused by H. influenzae. It counts as in vivo, human. Conditions: single intramuscular dose 50 mg/kg; 9 patients; follow-up. How it is done: Specimens for culture and susceptibility testing were obtained from the infected ear by tympanocentesis within 24 h of start of therapy. […] However, the study was evaluated using the breakpoints in the most recent set of guidelines.
To be a bacteriological cure, the MITT subject had to have a positive culture from the middle ear for S. pneumoniae, H influenzae, or M. catarrhalis. Eradication was defined as presumed eradication of pretreatment pathogen(s) based on signs/symptoms or unavailability of culturable material. All evaluable patients had only one of the bacterial species present at baseline. There was no bacteriological response data collected for 95–001. However, the clinical outcome by bacterial pathogen at follow-up (approximately 28 days after first visit) was collected. For patients with S. pneumoniae as the baseline pathogen, all treatment arms yielded 100% clinical cure when the investigators' evaluations that were missing are not included in the analysis. […] The comparator drug, ceftriaxone, had no failures out of 9 patients.

[8] abbreviates: oral QD, murine peritonitis model.
Setting [9] is: 1.56 mg/kg/day P.O., 2 day regimen.
Setting [10] is: 3.12 mg/kg/day P.O., 1 day regimen.
Setting [11] is: 6.25 mg/kg/day P.O., 2 day regimen.
Setting [12] is: 25.0 mg/kg/day P.O., 2 day regimen.
Where [13] appears, read: 50.0 mg/kg/day P.O., 1 day regimen.
The mark [14] stands for this setting: oral QD, murine pneumonia model.

Values after ≈ are worked out from the molar mass of the structure shown. Where two headings read alike, the source gives them in different places.

In the case of `CC[C@H]1OC(=O)[C@H](C)[C@@H](O[C@H]2C[C@@](C)(OC)[C@@H](O)[C@H](C)O2)[C@H](C)[C@@H](O[C@@H]2O[C@H](C)C[C@H](N(C)C)[C@H]2O)[C@](C)(OC)C[C@@H](C)C(=O)[C@H](C)[C@@H](O)[C@]1(C)O` [Clarithromycin], the “ED50 One-Day Therapy” value in experiment [1] is on record as greater than 200 mg/kg/therapy; in [2], 99.8 mg/kg/therapy; in experiment [3] (setting [8]), greater than 200 mg/kg/therapy; in experiment [4] (setting [14]), 270 mg/kg/therapy; in experiment [5] (setting [8]), 11.7^1 mg/kg/therapy. Further, the “ED50 Three-Day Therapy” value in experiment [1] is listed as greater than 200 mg/kg/therapy; in experiment [2], 87.5 mg/kg/therapy; in experiment [3] (setting [8]) it was greater than 200 mg/kg/therapy; in [4] (setting [14]), 338 mg/kg/therapy; in experiment [5] (setting [8]) it was 3.8 mg/kg/therapy. Also, the “ED50 Two-Day Therapy” value in experiment [1] is greater than 200 mg/kg/therapy; in [2], 103.0 mg/kg/therapy; in experiment [3] (setting [8]), greater than 200 mg/kg/therapy; in [4] (setting [14]), 327 mg/kg/therapy; in experiment [5] (setting [8]), 2.5 mg/kg/therapy. Besides, the “Mice Surviving/Total” value in experiment [3] (3.12 mg/kg/day) was 0/10; in experiment [3] (50 mg/kg/day), 2/10; in [3] (200 mg/kg/day), 0/10; in [3] ([…]) it was 0/10; in [4] (1.04 mg/kg/day P.O., 3 day regimen) it was 0/10; in [4] (setting [9]) it was 0/10. Besides, the “Mice Surviving/Total” value is 0/10 in experiment [4] (setting [10]); 0/10 in experiment [4] (4.2 mg/kg/day P.O., 3 day regimen); 0/10 in experiment [4] (setting [11]); 0/10 in experiment [4] (16.7 mg/kg/day P.O., 3 day regimen); 0/10 in experiment [4] (setting [12]); 1/10 in experiment [4] (setting [13]). For the same molecule, the “Mice Surviving/Total” value is reported as 2/10 in experiment [4] (66.7 mg/kg/day P.O., 3 day regimen); 1/10 in experiment [4] (100.0 mg/kg/day P.O., 2 day regimen); 4/10 in experiment [4] (200.0 mg/kg/day P.O., 1 day regimen); 1/10 in experiment [4] ([…] P.O., 1 day regimen); 0/10 in [5] (0.20 mg/kg/day P.O., 3 day regimen); 0/10 in [5] (0.39 mg/kg/day P.O., 2 day regimen). Moreover, the “Mice Surviving/Total” value in experiment [5] (0.78 mg/kg/day P.O., 1 day regimen) is given as 0/10; in [5] (0.78 mg/kg/day P.O., 3 day regimen) it was 5/10; in experiment [5] (setting [9]), 8/10; in experiment [5] (setting [10]) it was 4/10; in [5] (3.12 mg/kg/day P.O., 3 day regimen), 9/10; in [5] (setting [11]) it was 9/10. In addition, the “Mice Surviving/Total” value in experiment [5] (setting [12]) is recorded as 8/10; in experiment [5] (setting [13]), 10/10; in experiment [5] ([…] P.O., 1 day regimen) it was 6/10; in experiment [5] ([…] P.O., 3 day regimen), 10/10. Further, the “Oral PD50” value in experiment [3] (Dosing Regimen 1 day) is listed as greater than 200 mg/kg/day; in [4] (Dosing Regimen 1 day), greater than 200 mg/kg/day; in experiment [4] (Dosing Regimen 2 days), greater than 200 mg/kg/day; in [4] (Dosing Regimen 3 days), greater than 200 mg/kg/day; in experiment [5] (Dosing Regimen 1 day) it was 11.3 (3.1–19.4) mg/kg/day; in [5] (Dosing Regimen 2 days), 2.2 (0.9–3.6) mg/kg/day. The “Oral PD50” value in experiment [5] (Dosing Regimen 3 days) is 3.1 (2.6–3.7) mg/kg/day. Besides, in [3] (one therapeutic dose (one day regimen), s.c.), the PD50 is on record as greater than 200 mg/kg. The MIC is 8 µg/mL (≈ 10.7 µM) in the experiment with H. influenzae 54A1100 (listed as Clanthromycin); 8 µg/mL (≈ 10.7 µM) in the experiment on H. influenzae 54A1100 (Haemophilus influenzae, read-out: MIC); “MIC 0.01-0.03 μg/ml” against S. pyogenes 02C0203. The PD50s in [4] (all three q.d. regimens (1, 2, 3 days)) is greater than 200 mg/kg; in experiment [4] (previous data, BID administration over two days of therapy), 5 to 25 mg/kg.

Consider `CC=CC1=C(C(=O)O)N2C(=O)[C@@H](NC(=O)[C@H](N)c3ccc(O)cc3)[C@H]2SC1` [Cefprozil], for which, in the experiment with H. influenzae [6], the “success rate less than control (amoxicillin/clavulanic acid); presumptive bacterial/clinical cure outcomes (i.e., clinical success) at 10–16 days post-therapy” value is 17% less than control (amoxicillin/clavulanic.

As for `CCC[C@@H]1C[C@@H](C(=O)N[C@@H]([C@H]2O[C@H](SC)[C@H](O)[C@@H](O)[C@H]2O)[C@H](C)Cl)N(C)C1` [clindamycin], the “clindamycin MIC” value in the experiment on S. pneumoniae isolates (S. pneumoniae strains with erm(B)) was 128 µg/mL. Further, the MIC in the experiment with S. pneumoniae isolates (read-out: clindamycin MIC, S. pneumoniae strains confirmed as mef(A)) was less than 0.06 µg/mL; in the experiment with S. pneumoniae isolates (read-out: clindamycin MIC, S. pneumoniae strains with erm(B)), greater than 128 µg/mL.

For `CO/N=C(\C(=O)N[C@@H]1C(=O)N2C(C(=O)O)=C(CSc3nc(=O)c(=O)[nH]n3C)CS[C@H]12)c1csc(N)n1` [Ceftriaxone], the failures result with H. influenzae [7] is reported as “no failures”.
